Laboratory results taken from patent US7585859B2, “PDE4B inhibitors and uses therefor” (Plexxikon, Inc., priority 2004, dated 2009).
Like-named read-outs stand apart in the source and are kept apart here.

What was measured:
[1] = molecular target: T1, full-length human PDE4B2 isozyme (Homo sapiens, UniProt Q07343); assay: PDE4 IC50 determination by Scintillation Proximity Assay, PDE4B2; assay type: biochemical
T1 construct: The full-length human PDE4B2 isozyme; His6 (N); TEV cleavage site (N); made in house; host or cells: baculovirus infected insect cells (unpurified lysate)
Procedure, shortened: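 Unpurified His6-TEV-tagged full-length human PDE4B2 from baculovirus-infected insect cell lysate (2.5 μl of 50% glycerol stock/ml) hydrolysed [3H]cAMP in 50 mM Tris pH 7.5, 8.3 mM MgCl, 1.7 mM EGTA, 0.01% BSA for 30 min at 30°. Stopped with SPA beads in 18 mM ZnSO4; [3H]AMP scintillation counted, IC50 by non-linear regression.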

[2] = molecular target: T2, full-length human PDE4D5 isozyme (Homo sapiens, UniProt Q08499); assay: PDE4 IC50 determination by Scintillation Proximity Assay, PDE4D5; assay type: biochemical
T2 construct: The full-length human PDE4D5 isozyme; His6 (N); TEV cleavage site (N); made in house; host or cells: baculovirus infected insect cells (unpurified lysate)
Procedure, shortened: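 Unpurified His6-tagged full-length human PDE4D5 from baculovirus-infected insect cell lysate, 0.083 μl glycerol stock/ml, hydrolysed [3H]cAMP in Tris pH 7.5/MgCl/EGTA buffer, 30 min at 30°. ZnSO4/SPA beads stop; [3H]AMP counted. Controls: DMSO and roflumilast; 11-point duplicate curves, nonlinear-regression IC50.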

[3] = system: TNFα levels in serum of LPS-challenged rats; assay: Rat inhibition studies: serum TNFα after iv LPS challenge; assay type: in vivo; details: read-out: % inhibition r TNFα; for inhibition in vivo at 100 mg/kg: 100 mg/kg po
Procedure: All studies were done with male rats CD (SD) IGS BR (Crl) (Charles River, France), which were grouped in to 5 animal groups.
At the end of the acclimatization period, the non-fasted rats were weighed, individually identified on the tail with a permanent marker and administered by oral (po) or interperitoneal (ip) route with either vehicle, reference or test compound in a volume of 10 mL/kg adapted to the body weight. The animals were gathered in groups of 5 animals in a polystyrene labeled cage with sawdust covered floors. 2-hours after vehicle, reference or test substance administration, rats received an intravenous (iv) injection of 0.1 mg/kg LPS in a volume of 1 mL/kg of body weight. 2 h after LPS challenge (or as indicated in Tables 3B and 4B), blood samples were collected into tubes without anticoagulant by retro-orbital puncture under gas (isoflurane) anesthesia. Samples were allowed to clot at room temperature for 5 to 10 min then put on ice until there were prepared by centrifugation (6000×g for 3 min at 4° C.) and stored at −20° C. until use. TNFα levels were measured in serum samples in duplicate by ELISA technique according to the manufacturer's procedure (Rat TNFα kit Quantikine M (RTA00, R&D System, France)). Data are reported as percent decrease in observed TNFα levels versus TNFa levels observed for vehicle dosed animal groups.

PDE4D = molecular target: T3, PDE4D (Homo sapiens, UniProt Q08499); assay: PDE4 IC50 determination by Scintillation Proximity Assay, PDE4D; assay type: biochemical
T3 construct: PDE4D: The catalytic domain of human PDE4B from S3 16-V692; His6 (N); thrombin cleavage site (N); made in house; host or cells: E. coli
Procedure, shortened: (§1)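 Hydrolysis of [^3H]cAMP measured by SPA with yttrium silicate beads, which bind the [^3H]AMP product strongly and cAMP weakly. Enzyme at 80 ng/ml for PDE4B, 4 ng/ml for PDE4D; 30 min at 30°.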

[4] = molecular target: T4, PDE4B: The catalytic domain of human PDE4B from S152-S528 (Homo sapiens, UniProt Q07343); assay: PDE4 IC50 determination by Scintillation Proximity Assay, PDE4B; assay type: biochemical
T4 construct: His6 (N); thrombin cleavage site (N); made in house; host or cells: E. coli
Procedure, shortened: as §1

[5] = Table 1B, Formula I compounds, read-out: IC50 PDE4B2
[6] = Table 1B, Formula I compounds, read-out: IC50 PDE4D5
[7] = Table 1B, Formula I compounds, read-out: IC50 PDE4D
[8] = Table 1B, Formula I compounds, read-out: IC50 PDE4B
[9] = 2 h, rat, po, 2 hr challenge delay
[10] = po, 2 h, rat in vivo inhibition assay, 2 hr challenge delay
[11] = second part of Table 2B (2-23 to 2-103), column 4, column is PDE4B2 in first part, read-out: IC 50 vs. indicated assay h TNFα
[12] = po, 2 h, rat in vivo, 2 hr challenge delay, percent decrease in TNFα versus vehicle
[13] = second part of Table 2B (2-23 to 2-103), column 5, column is PDE4D in first part, read-out: IC 50 vs. indicated assay h TNFα
[14] = second part of Table 2B (2-23 to 2-103), column 3, column is PDE4B in first part, read-out: IC 50 vs. indicated assay h TNFα

T4 sequence (Q07343 with tags, fused parts or gaps): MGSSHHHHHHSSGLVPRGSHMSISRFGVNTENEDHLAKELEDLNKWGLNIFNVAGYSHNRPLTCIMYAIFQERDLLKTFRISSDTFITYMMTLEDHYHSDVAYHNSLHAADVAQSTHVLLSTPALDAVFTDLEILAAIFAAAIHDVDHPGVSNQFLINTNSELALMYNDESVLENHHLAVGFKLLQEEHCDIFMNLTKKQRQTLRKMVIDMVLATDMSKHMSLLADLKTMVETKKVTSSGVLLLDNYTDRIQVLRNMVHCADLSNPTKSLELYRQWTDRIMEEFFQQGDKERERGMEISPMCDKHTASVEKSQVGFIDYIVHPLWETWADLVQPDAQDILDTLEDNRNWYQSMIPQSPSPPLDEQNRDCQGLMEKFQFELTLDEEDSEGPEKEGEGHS
T2 sequence (Q08499 1-745 isoform Q08499-6): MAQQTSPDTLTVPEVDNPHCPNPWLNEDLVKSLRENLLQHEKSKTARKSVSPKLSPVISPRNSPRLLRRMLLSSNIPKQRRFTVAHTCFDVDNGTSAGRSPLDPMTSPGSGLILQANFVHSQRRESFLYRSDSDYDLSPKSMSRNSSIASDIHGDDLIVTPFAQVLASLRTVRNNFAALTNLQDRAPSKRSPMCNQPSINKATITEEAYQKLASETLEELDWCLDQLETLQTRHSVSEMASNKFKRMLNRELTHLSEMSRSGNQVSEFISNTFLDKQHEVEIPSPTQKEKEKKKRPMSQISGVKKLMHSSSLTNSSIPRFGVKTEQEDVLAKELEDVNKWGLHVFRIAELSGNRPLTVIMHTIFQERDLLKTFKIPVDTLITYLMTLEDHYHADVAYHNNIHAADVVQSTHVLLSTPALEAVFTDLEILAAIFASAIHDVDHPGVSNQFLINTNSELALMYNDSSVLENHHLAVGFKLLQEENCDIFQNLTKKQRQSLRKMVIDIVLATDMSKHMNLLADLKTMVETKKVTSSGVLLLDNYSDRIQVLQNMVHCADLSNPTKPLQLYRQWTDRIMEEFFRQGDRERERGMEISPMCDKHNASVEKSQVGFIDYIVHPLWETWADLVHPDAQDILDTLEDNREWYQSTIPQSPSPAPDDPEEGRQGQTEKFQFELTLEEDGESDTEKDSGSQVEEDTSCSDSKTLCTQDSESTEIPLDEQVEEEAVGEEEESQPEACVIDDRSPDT
T1 sequence (Q07343 1-564 isoform Q07343-2): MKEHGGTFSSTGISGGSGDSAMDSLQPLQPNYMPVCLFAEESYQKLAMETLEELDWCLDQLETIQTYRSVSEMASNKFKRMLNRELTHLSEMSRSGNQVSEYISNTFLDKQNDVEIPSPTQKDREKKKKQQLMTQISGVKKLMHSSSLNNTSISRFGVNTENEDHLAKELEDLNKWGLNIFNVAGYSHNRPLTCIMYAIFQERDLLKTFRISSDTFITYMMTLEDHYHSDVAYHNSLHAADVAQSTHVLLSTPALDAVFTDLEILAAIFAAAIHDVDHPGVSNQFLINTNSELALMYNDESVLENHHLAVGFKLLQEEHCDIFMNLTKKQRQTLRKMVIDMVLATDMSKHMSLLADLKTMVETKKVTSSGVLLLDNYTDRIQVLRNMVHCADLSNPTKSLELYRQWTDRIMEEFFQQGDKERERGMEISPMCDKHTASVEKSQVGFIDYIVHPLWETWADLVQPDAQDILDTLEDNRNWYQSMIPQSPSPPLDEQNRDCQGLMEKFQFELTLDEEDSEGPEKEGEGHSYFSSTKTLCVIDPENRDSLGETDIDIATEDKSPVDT
T3 sequence (Q08499 380-756): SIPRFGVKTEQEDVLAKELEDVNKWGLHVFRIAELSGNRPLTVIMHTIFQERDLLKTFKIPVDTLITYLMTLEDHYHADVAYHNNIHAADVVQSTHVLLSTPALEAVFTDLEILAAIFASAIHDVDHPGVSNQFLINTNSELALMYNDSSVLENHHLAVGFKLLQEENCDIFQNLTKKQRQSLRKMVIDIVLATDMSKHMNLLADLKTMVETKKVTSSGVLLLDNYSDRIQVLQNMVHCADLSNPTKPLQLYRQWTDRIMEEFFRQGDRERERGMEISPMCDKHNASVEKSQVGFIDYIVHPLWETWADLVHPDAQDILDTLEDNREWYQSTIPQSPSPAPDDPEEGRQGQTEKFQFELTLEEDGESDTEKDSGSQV

CC(C)Nc1sc(C(=O)c2cc(-c3ccc(Cl)cc3)no2)c(N)c1C#N [Compound 1-212, 4-Amino-5-[3-(4-chloro-phenyl)-isoxazole-5-carbonyl]-2-isopropylamino-thiophene-3-carbonitrile]
IC50 [1, 5]: < 10 µM
IC50 [2, 6]: > 10 µM
inhibition in vivo at 90 mg ([3]; 2 h, rat, 90 mg, po, 2 hr challenge delay): > 20%
IC50 (PDE4D; [7]): > 10 µM
IC50 [4, 8]: < 10 µM

CC(C)CNc1sc(C(=O)c2cc(-c3ccccc3)no2)c(N)c1C(N)=O [Compound 1-236, 4-Amino-2-isobutylamino-5-(3-phenyl-isoxazole-5-carbonyl)-thiophene-3-carboxylic acid amide]
IC50 [1, 5]: < 10 µM
IC50 [2, 6]: < 10 µM
inhibition in vivo at 50 mg ([3]; 2 h, rat, ip, 2 hr challenge delay): > 20%
inhibition in vivo at 50 mg [3, 9]: > 20%
IC50 (PDE4D; [7]): < 10 µM
IC50 [4, 8]: < 10 µM

N#Cc1c(Nc2ccccc2)sc(C(=O)C2CC2)c1N [Compound 1-28, 4-Amino-5-cyclopropanecarbonyl-2-phenylamino-thiophene-3-carbonitrile]
IC50 [1, 5]: < 10 µM
IC50 [2, 6]: < 10 µM
inhibition in vivo at 100 mg/kg [3, 10]: < 20%
IC50 (PDE4D; [7]): < 10 µM
IC50 [4, 8]: < 10 µM

CCOC(=O)c1c(NC2CCCC2)sc(C(=O)c2ccc(OC)cc2)c1N [Compound 1-191, 4-Amino-2-cyclopentylamino-5-(4-methoxy-benzoyl)-thiophene-3-carboxylic acid ethyl ester]
IC50 [1, 5]: < 10 µM
IC50 [2, 6]: < 10 µM
inhibition in vivo at 50 mg [3, 9]: < 20%
IC50 (PDE4D; [7]): < 10 µM
IC50 [4, 8]: < 10 µM

Nc1nc(Nc2ccc(Cl)cc2)sc1C(=O)c1cccc(C(F)(F)F)c1 [Compound 2-23, [4-Amino-2-(4-chloro-phenylamino)-thiazol-5-yl]-(3-trifluoromethyl-phenyl)-methanone]
IC50 [1, 11]: < 10 µM
inhibition in vivo at 100 mg/kg [3, 12]: < 20%
IC50 (PDE4D; [13]): < 10 µM
IC50 [4, 14]: < 10 µM

N#Cc1c(Nc2ccccc2)sc(C(=O)c2cc(-c3ccccc3)no2)c1N [Compound 1-192, 4-Amino-2-phenylamino-5-(3-phenyl-isoxazole-5-carbonyl)-thiophene-3-carbonitrile]
IC50 [1, 5]: < 10 µM
IC50 [2, 6]: < 10 µM
inhibition in vivo at 50 mg [3, 9]: < 20%
IC50 (PDE4D; [7]): < 10 µM
IC50 [4, 8]: < 10 µM

CC(C)Nc1sc(C(=O)c2cc(-c3ccccc3)no2)c(N)c1C#N [Compound 1-205, 4-Amino-2-isopropylamino-5-(3-phenyl-isoxazole-5-carbonyl)-thiophene-3-carbonitrile]
IC50 [1, 5]: > 10 µM
inhibition in vivo at 100 mg/kg [3, 10]: < 20%
IC50 (PDE4D; [7]): < 10 µM
IC50 [4, 8]: < 10 µM

Nc1nc(Nc2ccccc2F)sc1C(=O)c1cc(-c2ccccc2)no1 [Compound 2-6, [4-Amino-2-(2-fluoro-phenylamino)-thiazol-5-yl]-(3-phenyl-isoxazol-5-yl)-methanone]
IC50 ([1]; first part of Table 2B (2-1 to 2-22), read-out: IC 50 vs. indicated assay PDE4B2): < 10 µM
IC50 ([2]; first part of Table 2B (2-1 to 2-22), read-out: IC 50 vs. indicated assay PDE4D5): < 10 µM
inhibition in vivo at 100 mg/kg [3, 12]: > 20%
IC50 (PDE4D; first part of Table 2B (2-1 to 2-22), read-out: IC 50 vs. indicated assay PDE4D): < 10 µM
IC50 ([4]; first part of Table 2B (2-1 to 2-22), read-out: IC 50 vs. indicated assay PDE4B): < 10 µM

Nc1nc(NC2CCCC2)sc1C(=O)c1cccc(Cl)c1 [Compound 2-80, (4-Amino-2-cyclopentylamino-thiazol-5-yl)-(3-chloro-phenyl)-methanone]
IC50 [1, 11]: < 10 µM
inhibition in vivo at 100 mg/kg [3, 12]: > 20%
IC50 (PDE4D; [13]): < 10 µM
IC50 [4, 14]: < 10 µM

NC(=O)c1c(NC2CCCC2)sc(C(=O)c2cc(-c3ccccc3)no2)c1N [Compound 1-251, 4-Amino-2-cyclopentylamino-5-(3-phenyl-isoxazole-5-carbonyl)-thiophene-3-carboxylic acid amide]
IC50 [1, 5]: < 10 µM
IC50 [2, 6]: < 10 µM
inhibition in vivo at 50 mg [3, 9]: > 20%
IC50 (PDE4D; [7]): < 10 µM
IC50 [4, 8]: < 10 µM

COc1ccc(C(=O)c2sc(Nc3ccccc3)c(C#N)c2N)cc1 [Compound 1-31]
IC50 [1, 5]: < 10 µM
IC50 [2, 6]: < 10 µM
inhibition in vivo at 200 mg ([3]; 1 h, rat, 200 mg, po, 1 hr challenge delay): < 20%
inhibition in vivo at 100 mg/kg [3, 10]: > 20%
IC50 (PDE4D; [7]): < 10 µM
IC50 [4, 8]: < 10 µM
